The values below come from article PMC7955127, “Preclinical small molecule WEHI-7326 overcomes drug resistance and elicits response in patient-derived xenograft models of human treatment-refractory tumors” (Cell Death & Disease, 2021).

The structures appear in SMILES notation.

In assay [1] the test system is SW480. The assay can be described thus: Cell growth inhibition assay, SW480. The assay is classed as cell-based, human. The settings on record: SW480 colon cancer cell line in vitro. As for the experimental part: Cells were plated at a density of between 500 to 5000 cells per well for adherent cell lines depending on doubling time, and 15,000 cells per well for lymphoblastic leukemia cell lines, in a 96-well plate in 200 μl of growth media. Plates were incubated overnight at 37 °C before adding the inhibitors. Inhibitors were serially diluted from the stock solutions in complete medium and added to the cells. Incubation in the presence of inhibitors was continued for […]. Cell viability was assessed by the AlamarBlue (Invitrogen) or CellTiterBlue/Glo (Promega) method according to manufacturer’s instructions. The curve fits and IC50 values were generated in PRISM (GraphPad, San Diego, CA).
a Chemical structures of the triazine-based anti-mitotics used in this study. b Dose-dependent antiproliferative activity of key derivatives and comparison with commonly used anti-mitotics in SW480 cell line: Data shown is cell viability (as measured by CellTiterGlo) after 72 h relative to untreated control cells. Shown is mean of 3 independent experiments performed in duplicate +/- SEM. c Dose-dependent cell cycle analysis of key derivatives of WEHI-7326 development in SW480 cell line. Data are presented as percentage of cells in G2/M or subG0 after 24 h incubation with titration of inhibitors as assessed by PI staining and flow cytometry. Mean average of 3 experiments +/- SEM. d Comparison of IC50 and EC50 values of triazine compounds and anti-mitotic drugs in SW480 cell line: inhibition of cellular proliferation and cell cycle arrest in G2/M. IC50 and EC50 values are the mean of 3 independent experiments run in duplicates +/- SEM (n.d. = not determined). e HepG2 cytotoxic assay: cell viability assay after 48 h, normalised to 0.4% DMSO (100% viability) and 2 μM bortezomib (0% viability). The data is the mean average of 2 experiments +/- SD.

Assay [2] concerns SW480. The assay can be described thus: Cell cycle analysis (G2/M arrest, PI staining, flow cytometry), SW480. In kind it is cell-based, human. The settings on record: SW480; for EC50: Homo sapiens, overnight incubation, PI staining, flow cytometry, mean of 3 ± SEM, read-out: EC50 (G2/M arrest). As to the method: Fig. 2 Antimitotic activity of WEHI-7326: cancer cell lines and effects on tubulin polymerization. a Dose-dependent antimitotic activity of WEHI-7326, nocodazol and taxol in tumor cell lines SW480 (colorectal) and MDA-MB-231 (breast). Data are presented as percentage of cells in G2/M after overnight incubation with increasing concentrations of inhibitors and PI staining followed by flow cytometry analysis. Mean average of 3 independent experiments ±SEM. b EC50 values (nM) for G2/M arrest on SW480 and MDA-MB-231 cell lines, given as mean average of 3 independent experiments ±SEM. c Western blot analysis of mitotic arrest in SW480 and MDA-MB-231 cells treated with EC50 concentrations of WEHI-7326 or Paclitaxel as marked by expression of phosho-S10 Histone H3 (p-HH3 S10), at different timepoints post treatment. Expression of β-actin provided as loading control. d Cell cycle analysis of LIM1899 cells 72 h post treatment with increasing concentrations of WEHI-7326 as measured by PI staining for DNA content followed by flow cytometry analysis. Sub-G1 represents apoptotic fractions and >4 N cell fractions of mitotic slippage. e Immunofluorescence confocal microscopy of tubulin polymerization in SW480 cells treated by various agents. Cells were incubated for 24 h with control (0.1% DMSO), nocodazole (1 μM), paclitaxel (1 μM), myoseverin B (1 μM) or WEHI-7326 (1 μM). Cells were fixed and stained with β-tubulin antibody (green) and DAPI (DNA; blue) and phalloidin (actin, red). Shown are single confocal sections and enlarged areas (3x) to highlight changes in microtubule network; scale bar = 20 μm. Representative images from 2 independent experiments. f Cellular tubulin polymerization assay in cells: SW480 cells were incubated overnight with paclitaxel, myoseverin B or WEHI-7326, then processed to detect fractions of polymerized (P) and soluble (S) tubulin by western blot analysis. Representative blot of 3 independent experiments. g Tubulin polymerization was assessed in vitro over time using a fluorescence-based tubulin polymerization assay (BK011P). Tubulin was incubated with control (DMSO), paclitaxel (3 μM), nocodazole (15 μM) and WEHI-7326 at indicated concentrations (in DMSO). Polymerization was measured by excitation at 360 nm and emission at 420 nm. Representative graph of 3 independent experiments performed in duplicates. […]
Cells in log growth were supplemented with fresh medium with either vehicle (control) or compound at the stated final concentrations. […] After 1 h incubation at room temperature in the dark, cells were analyzed on a FACScan (Becton and Dickinson) in CellQuest. The percentage of cells in each phase of the cell cycle was determined using ModFit software (Verity, http://www.vsh.com). Early and late apoptotic responses elicited by WEHI-7326 were assessed using Dead Cell Apoptosis Kit (ThermoFisher Scientific) with Annexin V FITC and PI following manufacturer’s instructions. Cells were incubated 24 h with 6-point, 4-fold titration of WEHI-7326, washed twice with cold 1X PBS, resuspended in 1X Annexin Binding Buffer, incubated with FITC Annexin V and PI for 15 mins at RT in the dark and subsequently analyzed by flow cytometry.
On the technique in general: Flow cytometry measures light scatter and fluorescence of single cells or particles in a stream.

Assay [3] concerns MDA-MB-231. Description: Cell cycle analysis (G2/M arrest, PI staining, flow cytometry), MDA-MB-231. The assay is classed as cell-based. The settings on record: Homo sapiens; MDA-MB-231; overnight incubation, PI staining, flow cytometry; mean of 3 ± SEM; read-out: EC50 (G2/M arrest). As for the experimental part:
Fig. 2 Antimitotic activity of WEHI-7326: cancer cell lines and effects on tubulin polymerization. a Dose-dependent antimitotic activity of WEHI-7326, nocodazol and taxol in tumor cell lines SW480 (colorectal) and MDA-MB-231 (breast). Data are presented as percentage of cells in G2/M after overnight incubation with increasing concentrations of inhibitors and PI staining followed by flow cytometry analysis. Mean average of 3 independent experiments ±SEM. b EC50 values (nM) for G2/M arrest on SW480 and MDA-MB-231 cell lines, given as mean average of 3 independent experiments ±SEM. c Western blot analysis of mitotic arrest in SW480 and MDA-MB-231 cells treated with EC50 concentrations of WEHI-7326 or Paclitaxel as marked by expression of phosho-S10 Histone H3 (p-HH3 S10), at different timepoints post treatment. Expression of β-actin provided as loading control. d Cell cycle analysis of LIM1899 cells 72 h post treatment with increasing concentrations of WEHI-7326 as measured by PI staining for DNA content followed by flow cytometry analysis. Sub-G1 represents apoptotic fractions and >4 N cell fractions of mitotic slippage. e Immunofluorescence confocal microscopy of tubulin polymerization in SW480 cells treated by various agents. […] Representative blot of 3 independent experiments. g Tubulin polymerization was assessed in vitro over time using a fluorescence-based tubulin polymerization assay (BK011P). […] Polymerization was measured by excitation at 360 nm and emission at 420 nm. […]
Cells in log growth were supplemented with fresh medium with either vehicle (control) or compound at the stated final concentrations. […] After 1 h incubation at room temperature in the dark, cells were analyzed on a FACScan (Becton and Dickinson) in CellQuest. The percentage of cells in each phase of the cell cycle was determined using ModFit software (Verity, http://www.vsh.com). Early and late apoptotic responses elicited by WEHI-7326 were assessed using Dead Cell Apoptosis Kit (ThermoFisher Scientific) with Annexin V FITC and PI following manufacturer’s instructions. […]

Assay [4] deals with MDA-MB-231 LNA DRE (docetaxel resistant breast cancer) xenograft. Description: Orthotopic MDA-MB-231 LNA-DRE xenograft. The following applies: docetaxel 10 mg/kg weekly i.v., WEHI-7326 30 mg/kg biweekly i.v. The assay is classed as in vivo, Balb/c nude mice. As to the method: LoVo (4 × 10^6), PC3 (3 × 10^6) or MDA-MB-231 LNA DRE (10^6) cells were collected by trypsination and injected with 50 μl 1:1 PBS:Matrigel (v/v) subcutaneously on the right flank of 18 female (LoVo), 40 male (PC3) or into 4th mammary fat pad of 40 female (MDA231) Balb/c nude mice. Tumor growth was monitored and average tumor size at commencement of dosing was 100 mm^3. Mice were randomized into 3 arms of each 5 (LoVo), 10 (PC3) or 12 (MDA23) mice respectively and treatment with vehicle (saline), WEHI-7326 (biweekly) or docetaxel (weekly) was administered via tail vein injection. Tumor volumes were measured at least twice weekly with calipers and the experiments were terminated when tumors in the control group started exceeding 1500 mm^3. For LoVo, both vehicle and 25 mg/kg WEHI-7326 groups were harvested 24 h, but 20 mg/kg WEHI-7326 group harvested 1 h post final dose. For PC3, docetaxel group was not harvested in an attempt to grow out resistant tumors.

Assay [5] deals with 24 T TNBC PDX. The assay can be described thus: TNBC PDX model 24T. In kind it is in vivo, NOD-SCID-IL2Rγc–/– mice. The settings on record: 24 T PDX; docetaxel 10 mg/kg i.p. once; WEHI-7326 20 mg/kg i.v. biweekly. As to the method:
(§1) Cohorts of about 30 female mice were seeded with thawed single cell suspensions of early passage human breast tumors (passage 2 or 3). Briefly, 150,000–250,000 cells were resuspended in 10 µl of transplantation buffer (50% fetal calf serum, 10% of a 0.04% trypan blue solution and 40% PBS) and growth-factor-reduced Matrigel [BD] at a ratio of 3:1, and injected into the cleared mammary fat pads of 3- or 4-week-old NOD-SCID-IL2Rγc–/– female mice. Mice were monitored for tumor development three times weekly and tumor size measured using digital Vernier calipers. Tumor volume was estimated by measuring the minimum and maximum tumor diameters using the formula: (minimum diameter)^2 x (maximum diameter)/2. Once tumors arose, mice were randomized into treatment arms. Treatment was initiated when the tumor volume reached 80–120 mm^3. Randomization and tumor measurements were managed using the Study Director software (v 3.0, studylog). Mice were sacrificed at the first measurement where tumor volume exceeded 600 mm^3, or if their health deteriorated for reasons other than disease progression or drug toxicity (censored event).
(§2) Mice were treated with either docetaxel (10 mg/kg; i.p.; once), cisplatin (4 mg/kg; i.p.; once) or WEHI-7326 (20 mg/kg; twice a week (Monday and Thursday); i.v.). Vehicle treated mice were administered with the vehicle for WEHI-7326. Docetaxel was resuspended at 2 mg/ml in PBS:Tween-80:ethanol = 90:5:5 (v/v/v). WEHI-7326 was resuspended at 2 mg/ml in saline.

In assay [6] the test system is 322 T TNBC PDX. The assay can be described thus: TNBC PDX model 322T. In kind it is in vivo, NOD-SCID-IL2Rγc–/– mice. The following applies: 322 T PDX; docetaxel 10 mg/kg i.p. once; WEHI-7326 20 mg/kg i.v. biweekly. As for the experimental part:
as §1, §2

Assay [7] concerns MH792 LUSC PDX. Description: LUSC PDX model MH792. In kind it is in vivo, NOD-SCID-IL2Rγc–/– mice. The settings on record: MH792 PDX; WEHI-7326 20 mg/kg i.v. biweekly; docetaxel 10 mg/kg i.p. once. As to the method:
(§3) LUSC PDXs were generated as described in[25]. PDXs at passage 4 were defrosted and washed with PBS before counting. 200,000 to 500,000 cells were then injected in a 50:50 PBS:Matrigel mix into the flanks of NOD-SCID-IL2Rγc–/– male mice. Tumors were measured twice weekly with calipers and treatment started when tumors were between 70–120 mm^3. Mice were assigned to treatment groups based on average tumor volume per group. Mice were culled when tumors reached a volume of 600 mm^3.

Assay [8] deals with AH406 LUSC PDX. The assay can be described thus: LUSC PDX model AH406. The assay is classed as in vivo, NOD-SCID-IL2Rγc–/– mice. The following applies: WEHI-7326 20 mg/kg i.v. biweekly, docetaxel 10 mg/kg i.p. once. As to the method: as §3

`COc1ccc(CNc2nc(NCc3ccc(OC)cc3)nc(NN3CC(=O)NC3=O)n2)cc1` [compound 6]: in assay [1], the Concentration inhibiting proliferation entry was “at or below micromolar concentration”. The “G2/M cell cycle arrest” value in assay [2] was “strong G2/M cell cycle arrest”.
Take `COC(=O)Nc1nc2ccc(C(=O)c3cccs3)cc2[nH]1` [Nocodazol, nocodazole, reference compound]: the EC50 in assay [2] is 57.4 ± 5.9 nM; in assay [3], 37.2 ± 7.2 nM.
Regarding `CC(=O)O[C@@]12CO[C@@H]1C[C@H](O)[C@@]1(C)C(=O)[C@H](O)C3=C(C)[C@@H](OC(=O)[C@H](O)[C@@H](NC(=O)OC(C)(C)C)c4ccccc4)C[C@@](O)([C@@H](OC(=O)c4ccccc4)[C@H]21)C3(C)C` [docetaxel, reference compound], the “Tumor growth inhibition (TGI)” value in assay [4] was 70%. For the same compound, the Survival time came to 11 days in assay [5] and 7 days in assay [6]. For the same compound, the values for the Median survival in assay [7] and in assay [8] were 22 days and 24 days, respectively.
`CC(=O)O[C@H]1C(=O)[C@@]2(C)[C@H]([C@H](OC(=O)c3ccccc3)[C@]3(O)C[C@H](OC(=O)[C@H](O)[C@@H](NC(=O)c4ccccc4)c4ccccc4)C(C)=C1C3(C)C)[C@]1(OC(C)=O)CO[C@@H]1C[C@@H]2O` [Paclitaxel, paclitaxel, reference compound]: the EC50 in assay [2] is 39.3 ± 4.1 nM; in assay [3] it was 5.6 ± 3.1 nM.
